Source: patent US20240390408A1, “METHOD OF TREATING HEPATITIS C VIRUS IN PATIENTS” (Altesa BioSciences, Inc., priority 2023, published 2024)
Read-outs that look alike come from different tables or passages of the source.

Columns and labels:
[1] = Stability in minipig plasma; assay type: in vitro ADME
[2] = Tissue concentrations of Formula I and its metabolites in Göttingen pigs after a single oral or intravenous dose (LC-MS/MS); assay type: in vivo; conditions: for concentration at 2 h / concentration at 3 h: both sexes, Göttingen, pig (minipig), in vivo; for concentration at 2 h: 25 mg/kg; for concentration at 3 h: 125 mg/kg
Procedure: Tissue samples were collected at 3, 12, and 24 hours post-dose (hpd) for the oral dose and 2 and 12 hpd for the intravenous dose, snap-frozen in liquid nitrogen, and stored at −60 to −90° C. until shipment on dry ice for analysis by LC-MS/MS.
Animals were weighed the day prior to dosing to determine the dosing volume.
The compound of Formula I was dissolved in a PEG 400/DI water (60%/40% v/v) vehicle for oral dosing. For IV dosing the compound of Formula I was dissolved in a PEG 400/Cremophor RH 40/Saline (40%/10%/50% v/v) vehicle and passed through a sterile filter. […] Animals were euthanized by euthanasia solution administration under sedation, if necessary (e.g., acepromazine and or/Telazol®), followed by a Testing Facility SOP approved method to ensure death (e.g., exsanguination). Tissues were collected from two animals per sex per timepoint. Tissue samples, including the brain, heart, kidney, liver, lung, spleen, pancreas, bone marrow, duodenum, jejunum, and colon, were collected in duplicate (approximately 50±20 mg each) and placed into two separate reinforced homogenization tubes per organ (one tissue sample per tube). The exact weight (in milligrams) of each sample was recorded. Tissues samples were flash frozen in liquid nitrogen and stored at −60 to −90° C. until shipment on dry ice for analysis by LC-MS/MS.
Mobile phase A consisted of 50 mM ammonium bicarbonate buffer in HPLC grade water pH 9.8 and mobile phase B consisted of pure acetonitrile. […] Mass spectrometry analysis was performed on a QTrap 7500 Mass Spectrometer (Sciex, Framingham, MA, USA) using negative mode electrospray ionization (ESI) in multiple reaction monitoring (MRM) mode. Data analysis was performed using SCIEX OS Software (Sciex, Framingham, MA, USA).
Tissue samples were collected at 3, 12, and 24 hours post-dose for the oral dose and 2 and 12 hour post-dose for the intravenous dose.

[3] = liver, single oral dose of Formula I 125 mg/kg, 12 hpd
[4] = liver, single oral dose of Formula I 125 mg/kg, 24 hpd

Structure (SMILES): CC(C)OC(=O)[C@H](C)N[P@](=O)(OC[C@H]1O[C@@H](n2ccc(=O)[nH]c2=S)C(C)(O)C1O)Oc1ccccc1 (some centres unmarked) [Formula I]
- Stability in minipig plasma [1]: good stability
- Quantity detectable in organs ([2]; all organs, 2-3 hours after IV or PO dosing): ~0.1 µM
- concentration at 2 h ([2]; kidney, single intravenous bolus of Formula I 25 mg/kg, 2 hpd, read-out: Tissue concentration, kidney): 85 ± 93.1 ng/g
- concentration at 2 h ([2]; liver, single intravenous bolus of Formula I 25 mg/kg, 2 hpd, read-out: Tissue concentration, liver): 7.03 ± 8.24 ng/g
- concentration at 2 h ([2]; lung, single intravenous bolus of Formula I 25 mg/kg, 2 hpd, read-out: Tissue concentration, lung): 51.8 ± 29.1 ng/g
- concentration at 2 h ([2]; spleen, single intravenous bolus of Formula I 25 mg/kg, 2 hpd, read-out: Tissue concentration, spleen): 63.9 ± 29.8 ng/g
- concentration at 3 h ([2]; brain, single oral dose of Formula I 125 mg/kg, 3 hpd, read-out: Tissue concentration, brain): 31.5 ± 63 ng/g
- concentration at 3 h ([2]; heart, single oral dose of Formula I 125 mg/kg, 3 hpd, read-out: Tissue concentration, heart): 117 ± 105 ng/g
- concentration at 3 h ([2]; liver, single oral dose of Formula I 125 mg/kg, 3 hpd, read-out: Tissue concentration in Göttingen pig liver (Table 7)): 496 ± 663 nM
- concentration at 3 h ([2]; liver, single oral dose of Formula I 125 mg/kg, 3 hpd, read-out: Tissue concentration, liver): 270 ± 361 ng/g
- concentration at 3 h ([2]; lung, single oral dose of Formula I 125 mg/kg, 3 hpd, read-out: Tissue concentration, lung): 38.6 ± 46.5 ng/g
- concentration at 3 h ([2]; spleen, single oral dose of Formula I 125 mg/kg, 3 hpd, read-out: Tissue concentration, spleen): 88.4 ± 60.3 ng/g
- Tissue concentration, brain ([2]; brain, single intravenous bolus of Formula I 25 mg/kg, 2 hpd): BQL
- Tissue concentration, brain ([2]; brain, single intravenous bolus of Formula I 25 mg/kg, 12 hpd): BQL
- Tissue concentration, brain ([2]; brain, single oral dose of Formula I 125 mg/kg, 3 hpd): 31.5 ± 63.0 ng/g
- Tissue concentration, brain ([2]; brain, single oral dose of Formula I 125 mg/kg, 12 hpd): BQL
- Tissue concentration, brain ([2]; brain, single oral dose of Formula I 125 mg/kg, 24 hpd): BQL
- Tissue concentration, heart ([2]; heart, single intravenous bolus of Formula I 25 mg/kg, 2 hpd): 112 ± 69.0 ng/g
- Tissue concentration, heart ([2]; heart, single intravenous bolus of Formula I 25 mg/kg, 12 hpd): 2.95 ± 5.90 ng/g
- Tissue concentration, heart ([2]; heart, single oral dose of Formula I 125 mg/kg, 12 hpd): BQL
- Tissue concentration, heart ([2]; heart, single oral dose of Formula I 125 mg/kg, 24 hpd): BQL
- Tissue concentration, kidney ([2]; kidney, single intravenous bolus of Formula I 25 mg/kg, 12 hpd): BQL
- Tissue concentration, kidney ([2]; kidney, single oral dose of Formula I 125 mg/kg, 3 hpd): BQL
- Tissue concentration, kidney ([2]; kidney, single oral dose of Formula I 125 mg/kg, 12 hpd): BQL
- Tissue concentration, kidney ([2]; kidney, single oral dose of Formula I 125 mg/kg, 24 hpd): BQL
- Tissue concentration, liver ([2]; liver, single intravenous bolus of Formula I 25 mg/kg, 2 hpd): 7.03 ± 8.24 ng/g
- Tissue concentration, liver ([2]; liver, single intravenous bolus of Formula I 25 mg/kg, 12 hpd): BQL
- Tissue concentration, liver ([2]; liver, single oral dose of Formula I 125 mg/kg, 3 hpd): 270 ± 361 ng/g
- Tissue concentration in Göttingen pig liver (Table 7) [2, 3]: BQL
- Tissue concentration, liver [2, 3]: BQL
- Tissue concentration in Göttingen pig liver (Table 7) [2, 4]: BQL
- Tissue concentration, liver [2, 4]: BQL
- Tissue concentration, lung ([2]; lung, single intravenous bolus of Formula I 25 mg/kg, 12 hpd): BQL
- Tissue concentration, lung ([2]; lung, single oral dose of Formula I 125 mg/kg, 12 hpd): BQL
- Tissue concentration, lung ([2]; lung, single oral dose of Formula I 125 mg/kg, 24 hpd): BQL
- Tissue concentration, spleen ([2]; spleen, single intravenous bolus of Formula I 25 mg/kg, 12 hpd): BQL
- Tissue concentration, spleen ([2]; spleen, single oral dose of Formula I 125 mg/kg, 12 hpd): BQL
- Tissue concentration, spleen ([2]; spleen, single oral dose of Formula I 125 mg/kg, 24 hpd): BQL
